The numbers were not newly measured in patent US20240361407A1, “SYSTEMS AND METHODS FOR GENERATION OF HYPERPOLARIZED MATERIALS” (priority 2021, published 2024), which cites them from elsewhere.

≈ marks a conversion by molar mass, not a printed value.

The conditions of this series: aqueous solution.

The solubility is the concentration that dissolves in the medium under given conditions. For the compound `O=C(O)/C=C/C(=O)O` [fumaric acid], the solubility was 60 mM (≈ 6960 µg/mL).
